What was measured:
[1] = target: CDK1-cyclin B (Homo sapiens, UniProt P06493); assay: Kinase assay (radioactive phosphate incorporation), CDK1-cyclin B; type: biochemical; conditions: read-out: Kinase Inhibition pIC50 CDK1-cyclin B (converted)
Protocol: (§1) Kinase assays. The compounds of the invention above were investigated for their ability to inhibit the enzymatic activity of various protein kinases (Table 2). This was achieved by measurement of incorporation of radioactive phosphate from ATP into appropriate polypeptide substrates. Recombinant protein kinases and kinase complexes were produced or obtained commercially. Assays were performed using 96-well plates and appropriate assay buffers (typically 25 mM β-glycerophosphate, 20 mM MOPS, 5 mM EGTA, 1 mM DTT, 1 mM […], pH 7.4), into which were added 2-4 μg of active enzyme with appropriate substrates. The reactions were initiated by addition of Mg/ATP mix (15 mM MgCl2+100 μM ATP with 30-50 kBq per well of [γ-^32P]-ATP) and mixtures incubated as required at 30° C. Reactions were stopped on ice, followed by filtration through p81 filterplates or GF/C filterplates (Whatman Polyfiltronics, Kent, UK). After washing 3 times with 75 mM aq orthophosphoric acid, plates were dried, scintillant added and incorporated radioactivity measured in a scintillation counter (TopCount, Packard Instruments, Pangbourne, Berks, UK). Compounds for kinase assay were made up as 10 mM stocks in DMSO and diluted into 10% DMSO in assay buffer.

[2] = target: CDK9/cyclin T1 (Homo sapiens, UniProt P50750); assay: CDK 9 assay (CTD peptide substrate); type: biochemical; conditions: read-out: Kinase Inhibition pIC50 CDK9-cyclin T1 (converted)
Sequence of CDK9/cyclin T1 (P50750 whole entry): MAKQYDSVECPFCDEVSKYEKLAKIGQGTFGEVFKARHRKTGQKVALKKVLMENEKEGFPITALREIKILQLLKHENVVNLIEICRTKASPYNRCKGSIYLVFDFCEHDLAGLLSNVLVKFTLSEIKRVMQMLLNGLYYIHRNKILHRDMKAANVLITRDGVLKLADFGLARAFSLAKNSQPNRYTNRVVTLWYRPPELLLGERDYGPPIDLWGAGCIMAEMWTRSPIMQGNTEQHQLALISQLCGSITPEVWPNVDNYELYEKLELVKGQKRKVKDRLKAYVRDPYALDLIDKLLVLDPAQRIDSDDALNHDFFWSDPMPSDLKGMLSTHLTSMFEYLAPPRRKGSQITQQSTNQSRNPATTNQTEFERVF
Sequence of CDK9/cyclin T1 (O60563 whole entry partner): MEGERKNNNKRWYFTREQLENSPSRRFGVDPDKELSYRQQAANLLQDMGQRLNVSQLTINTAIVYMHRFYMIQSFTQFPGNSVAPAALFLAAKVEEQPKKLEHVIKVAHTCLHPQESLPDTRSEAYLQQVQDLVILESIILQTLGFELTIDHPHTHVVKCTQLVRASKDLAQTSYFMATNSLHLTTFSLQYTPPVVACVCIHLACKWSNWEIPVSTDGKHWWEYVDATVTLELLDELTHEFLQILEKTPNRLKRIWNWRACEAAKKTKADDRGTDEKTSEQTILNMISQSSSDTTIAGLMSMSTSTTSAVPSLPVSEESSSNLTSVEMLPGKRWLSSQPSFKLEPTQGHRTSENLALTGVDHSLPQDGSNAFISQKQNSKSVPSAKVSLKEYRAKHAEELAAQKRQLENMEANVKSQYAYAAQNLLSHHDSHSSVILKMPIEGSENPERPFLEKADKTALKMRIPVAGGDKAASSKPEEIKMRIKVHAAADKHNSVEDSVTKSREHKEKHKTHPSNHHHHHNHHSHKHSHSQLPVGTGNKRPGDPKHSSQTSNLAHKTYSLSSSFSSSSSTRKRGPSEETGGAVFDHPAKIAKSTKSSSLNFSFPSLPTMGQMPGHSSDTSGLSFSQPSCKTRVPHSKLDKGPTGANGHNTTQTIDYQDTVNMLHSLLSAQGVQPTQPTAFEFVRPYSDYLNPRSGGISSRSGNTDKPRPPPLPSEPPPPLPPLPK
How it was run: (§2)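 Recombinant human kinase/cyclin complex (0.5-2 μg) with biotinylated CTD heptapeptide-repeat substrate and test compound, 45 min at 30° C in MOPS pH 7.2 buffer with 15 mM MgCl2 and 100 μM ATP traced with [γ-32P]ATP. Avidin added, P81 filter capture, phosphoric acid washes, scintillation counting of 32P incorporation.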

[3] = target: T1, Flt3 (FMS-like tyrosine kinase-3) (Homo sapiens, UniProt P36888); assay: Kinase assay (radioactive phosphate incorporation), Flt3; type: biochemical; conditions: pIC50 is -log(IC50, M), read-out: Kinase Inhibition pIC50 Flt3 (converted)
T1 sequence (P36888 27-993): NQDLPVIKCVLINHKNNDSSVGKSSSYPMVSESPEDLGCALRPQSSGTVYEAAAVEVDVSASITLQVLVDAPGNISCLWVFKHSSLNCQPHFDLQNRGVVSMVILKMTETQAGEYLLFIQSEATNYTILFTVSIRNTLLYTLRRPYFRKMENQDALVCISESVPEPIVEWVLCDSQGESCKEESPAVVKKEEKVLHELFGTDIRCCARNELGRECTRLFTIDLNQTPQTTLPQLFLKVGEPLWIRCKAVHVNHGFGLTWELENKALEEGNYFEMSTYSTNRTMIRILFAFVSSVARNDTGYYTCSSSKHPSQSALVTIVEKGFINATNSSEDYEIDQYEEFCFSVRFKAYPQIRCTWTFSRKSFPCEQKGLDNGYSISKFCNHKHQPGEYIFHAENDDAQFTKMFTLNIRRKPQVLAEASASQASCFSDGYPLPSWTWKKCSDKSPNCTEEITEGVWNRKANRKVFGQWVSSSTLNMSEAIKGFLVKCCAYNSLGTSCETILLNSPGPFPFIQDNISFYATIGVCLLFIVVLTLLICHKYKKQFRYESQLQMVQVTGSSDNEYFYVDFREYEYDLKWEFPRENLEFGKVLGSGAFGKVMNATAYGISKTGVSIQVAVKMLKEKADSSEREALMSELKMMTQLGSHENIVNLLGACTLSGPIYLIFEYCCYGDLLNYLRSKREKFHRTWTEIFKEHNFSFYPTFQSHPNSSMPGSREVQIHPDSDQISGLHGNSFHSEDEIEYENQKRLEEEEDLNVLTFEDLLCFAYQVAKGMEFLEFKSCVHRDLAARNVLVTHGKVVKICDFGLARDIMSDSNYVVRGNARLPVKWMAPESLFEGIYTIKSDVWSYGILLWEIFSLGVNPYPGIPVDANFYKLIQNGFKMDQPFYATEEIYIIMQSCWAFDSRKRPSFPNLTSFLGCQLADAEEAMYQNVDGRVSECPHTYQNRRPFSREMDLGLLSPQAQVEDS
Protocol: as §1

[4] = target: T2, Aurora A kinase (Homo sapiens, UniProt O14965); assay: Aurora-A (human) kinase assay (Kemptide substrate); type: biochemical; conditions: pIC50 is -log(IC50, M); 15 μM ATP; read-out: Kinase Inhibition pIC50 Aurora A kinase (converted)
T2 construct: purchased
T2 sequence (O14965 1-403): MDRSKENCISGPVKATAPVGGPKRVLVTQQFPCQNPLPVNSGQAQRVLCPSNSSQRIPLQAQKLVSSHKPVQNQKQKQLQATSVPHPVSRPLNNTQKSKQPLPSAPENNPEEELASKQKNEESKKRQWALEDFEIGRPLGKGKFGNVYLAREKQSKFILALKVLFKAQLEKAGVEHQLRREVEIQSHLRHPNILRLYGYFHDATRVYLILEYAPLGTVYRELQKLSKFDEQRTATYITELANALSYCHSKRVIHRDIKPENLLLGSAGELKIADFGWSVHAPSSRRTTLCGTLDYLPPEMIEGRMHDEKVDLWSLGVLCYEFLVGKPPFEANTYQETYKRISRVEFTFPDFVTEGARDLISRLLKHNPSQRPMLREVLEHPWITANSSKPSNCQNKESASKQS
How it was run: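 Radiometric filter-binding assay: commercial aurora-A kinase (5-10 ng) with 200 μM Kemptide in MOPS/EDTA pH 7.0, started with 10 mM Mg acetate and 15 μM ATP plus [γ-33P]-ATP. Incubated 40 min at room temperature, stopped with phosphoric acid, incorporated 33P counted by scintillation.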

[5] = target: CDK2-cycline E (Homo sapiens, UniProt P24941); assay: Kinase assay (radioactive phosphate incorporation), CDK2-cyclin E; type: biochemical; conditions: read-out: Kinase Inhibition pIC50 CDK2-cycline E (converted)
How it was run: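 Recombinant active enzyme (2-4 μg) with suitable polypeptide substrate in 25 mM β-glycerophosphate, 20 mM MOPS, 5 mM EGTA, 1 mM DTT, 1 mM […], pH 7.4. Started with 15 mM MgCl2/100 μM ATP plus [γ-32P]-ATP, incubated at 30° C; 32P incorporation captured on filter plates and counted by scintillation.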

[6] = target: CDK4-cyclin D1 (Homo sapiens, UniProt P11802); assay: Kinase assay (radioactive phosphate incorporation), CDK4-cyclin D1; type: biochemical; conditions: read-out: Kinase Inhibition pIC50 CDK4-cyclin D1 (converted)
Sequence of CDK4-cyclin D1 (P11802 whole entry): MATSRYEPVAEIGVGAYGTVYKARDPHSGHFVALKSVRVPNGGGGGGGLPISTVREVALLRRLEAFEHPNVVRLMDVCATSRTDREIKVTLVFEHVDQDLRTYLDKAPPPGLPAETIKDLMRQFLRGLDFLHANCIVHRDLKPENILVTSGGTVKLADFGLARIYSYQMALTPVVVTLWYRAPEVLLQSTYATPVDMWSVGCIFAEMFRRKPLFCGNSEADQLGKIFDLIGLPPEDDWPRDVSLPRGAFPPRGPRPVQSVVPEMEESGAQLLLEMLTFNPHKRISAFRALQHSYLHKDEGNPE
Sequence of CDK4-cyclin D1 (P24385 whole entry partner): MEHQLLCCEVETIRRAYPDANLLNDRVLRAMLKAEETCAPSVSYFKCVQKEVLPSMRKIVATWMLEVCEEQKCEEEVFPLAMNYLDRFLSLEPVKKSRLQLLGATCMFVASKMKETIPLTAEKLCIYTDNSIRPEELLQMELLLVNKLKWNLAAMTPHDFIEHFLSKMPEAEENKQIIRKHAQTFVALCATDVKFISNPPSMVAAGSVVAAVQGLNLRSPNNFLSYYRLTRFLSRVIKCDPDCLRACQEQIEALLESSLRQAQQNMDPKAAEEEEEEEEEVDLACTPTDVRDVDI
Protocol: as §1

[7] = target: CDK7/cyclin H (Homo sapiens, UniProt P50613); assay: CDK 7 assay (CTD peptide substrate); type: biochemical; conditions: read-out: Kinase Inhibition pIC50 CDK7-cyclin H (converted)
Sequence of CDK7/cyclin H (P50613 whole entry): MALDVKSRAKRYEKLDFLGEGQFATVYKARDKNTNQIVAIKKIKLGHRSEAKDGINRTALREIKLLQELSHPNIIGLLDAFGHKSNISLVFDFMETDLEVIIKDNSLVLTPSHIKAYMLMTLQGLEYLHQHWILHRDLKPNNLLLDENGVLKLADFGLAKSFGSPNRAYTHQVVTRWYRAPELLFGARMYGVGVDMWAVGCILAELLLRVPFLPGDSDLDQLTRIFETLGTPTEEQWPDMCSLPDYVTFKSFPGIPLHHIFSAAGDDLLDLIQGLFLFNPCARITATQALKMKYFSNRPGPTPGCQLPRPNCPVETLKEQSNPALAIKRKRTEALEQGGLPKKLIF
Sequence of CDK7/cyclin H (P51946 whole entry partner): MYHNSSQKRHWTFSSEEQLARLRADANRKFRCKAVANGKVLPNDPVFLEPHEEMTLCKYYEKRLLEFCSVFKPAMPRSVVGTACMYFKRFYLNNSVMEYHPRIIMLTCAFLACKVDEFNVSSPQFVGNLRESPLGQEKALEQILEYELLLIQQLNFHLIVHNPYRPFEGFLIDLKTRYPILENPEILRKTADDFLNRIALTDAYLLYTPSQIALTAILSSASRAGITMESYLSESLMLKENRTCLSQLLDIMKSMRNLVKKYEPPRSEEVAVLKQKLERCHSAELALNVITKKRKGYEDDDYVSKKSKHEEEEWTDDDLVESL
How it was run: as §2

[8] = target: GSK3b (Homo sapiens, UniProt P49841); assay: Kinase assay (radioactive phosphate incorporation), GSK-3b; type: biochemical; conditions: read-out: Kinase Inhibition pIC50 GSK-3b (converted)
Sequence of GSK3b (P49841 whole entry, species assumed): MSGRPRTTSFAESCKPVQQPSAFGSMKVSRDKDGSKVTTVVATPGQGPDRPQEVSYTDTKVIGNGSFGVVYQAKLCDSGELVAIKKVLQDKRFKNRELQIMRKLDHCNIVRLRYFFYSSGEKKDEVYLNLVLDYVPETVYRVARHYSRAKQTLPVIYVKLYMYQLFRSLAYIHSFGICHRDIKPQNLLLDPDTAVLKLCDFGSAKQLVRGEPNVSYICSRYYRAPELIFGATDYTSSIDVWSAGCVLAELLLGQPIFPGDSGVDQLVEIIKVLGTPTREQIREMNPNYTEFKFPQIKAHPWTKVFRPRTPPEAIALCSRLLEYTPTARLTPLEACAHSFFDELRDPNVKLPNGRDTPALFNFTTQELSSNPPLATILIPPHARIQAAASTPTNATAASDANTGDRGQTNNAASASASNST
Protocol: as §1

Sequence of CDK1-cyclin B (P06493 whole entry): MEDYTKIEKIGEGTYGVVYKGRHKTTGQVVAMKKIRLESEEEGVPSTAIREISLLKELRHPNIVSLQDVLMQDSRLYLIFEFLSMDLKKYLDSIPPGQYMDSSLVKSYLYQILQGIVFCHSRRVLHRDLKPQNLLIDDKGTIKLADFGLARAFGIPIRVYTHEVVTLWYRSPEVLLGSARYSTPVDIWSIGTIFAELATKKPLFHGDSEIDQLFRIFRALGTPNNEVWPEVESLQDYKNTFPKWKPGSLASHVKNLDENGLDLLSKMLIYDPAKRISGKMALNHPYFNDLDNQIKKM
Sequence of CDK1-cyclin B (P14635 whole entry partner): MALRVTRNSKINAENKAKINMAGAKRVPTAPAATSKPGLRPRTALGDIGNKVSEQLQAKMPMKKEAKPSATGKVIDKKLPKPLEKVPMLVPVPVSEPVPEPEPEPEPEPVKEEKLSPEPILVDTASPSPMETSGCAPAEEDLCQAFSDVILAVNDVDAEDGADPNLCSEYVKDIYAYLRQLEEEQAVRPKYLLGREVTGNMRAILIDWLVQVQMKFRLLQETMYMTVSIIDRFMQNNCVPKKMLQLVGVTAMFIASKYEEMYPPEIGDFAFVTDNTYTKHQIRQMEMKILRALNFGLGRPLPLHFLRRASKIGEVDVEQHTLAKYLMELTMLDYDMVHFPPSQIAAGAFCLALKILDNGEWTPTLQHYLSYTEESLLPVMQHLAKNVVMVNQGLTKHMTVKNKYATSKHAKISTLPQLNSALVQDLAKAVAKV

Compound | IC50 [1] [nM] | IC50 [2] [nM] | IC50 [3] [nM] | IC50 [4] [nM] | IC50 [5] [nM] | IC50 [6] [nM] | IC50 [7] [nM] | IC50 [8] [nM] | melting point [°C]
CCNc1nc(C)c(-c2ccnc(Nc3cc(OC)c(OC)c(OC)c3)n2)s1 [Compound 24, [4-(2-Ethylamino-4-methyl-thiazol-5-yl)-pyrimidin-2-yl]-(3,4,5-trimethoxy-phenyl)-amine] | 2000 | 31.6 | 7.94 | 2.51 | – | – | – | – | –
CCNc1nc(C)c(-c2ccnc(Nc3cccc(S(=O)(=O)NCC)c3)n2)s1 [Compound 29, N-Ethyl-3-[4-(2-ethylamino-4-methyl-thiazol-5-yl)-pyrimidin-2-ylamino]-benzenesulfonamide] | – | 10 | 1000 | 50.1 | 316 | 398 | 794 | – | –
CCNc1nc(C)c(-c2ccnc(Nc3ccc(C)c(S(=O)(=O)N4CCOCC4)c3)n2)s1 [Compound 36, [4-(2-Ethylamino-4-methyl-thiazol-5-yl)-pyrimidin-2-yl]-[4-methyl-3-(morpholine-4-sulfonyl)-phenyl]-amine] | – | 39.8 | – | 12.6 | – | – | 1260 | 3980 | –
CC(=O)N1CCN(c2ccc(Nc3nccc(-c4sc(N)nc4C)n3)cc2)CC1 [Compound 57, 1-(4-{4-[4-(2-Amino-4-methyl-thiazol-5-yl)-pyrimidin-2-ylamino]-phenyl}-piperazin-1-yl)-ethanone] | 79400 | 10000 | – | 63.1 | – | 10000 | 15800 | – | –
CCNc1nc(C)c(-c2ccnc(NCc3cccnc3)n2)s1 [Compound 79, [4-(2-Ethylamino-4-methyl-thiazol-5-yl)-pyrimidin-2-yl]-pyridin-3-ylmethyl-amine] | – | 1580 | – | – | 6310 | 3160 | 6310 | – | –
CCNc1nc(C)c(-c2ccnc(Nc3cccc(S(=O)(=O)NCc4ccccc4)c3)n2)s1 [Compound 80, N-Benzyl-3-[4-(2-ethylamino-4-methyl-thiazol-5-yl)-pyrimidin-2-ylamino]-benzenesulfonamide] | – | 251 | – | 398 | – | – | – | 2510 | –
Cc1nc(-c2cccnc2)sc1-c1ccnc(Nc2ccc(N3CCOCC3)cc2)n1 [Compound 100, [4-(4-Methyl-2-pyridin-3-yl-thiazol-5-yl)-pyrimidin-2-yl]-(4-morpholin-4-yl-phenyl)-amine] | – | – | 316 | 251 | – | – | – | – | 240 to 242
CC(=O)NCc1ccc(Nc2nccc(-c3sc(-c4cccnc4)nc3C)n2)cc1 [Compound 103, N-{4-[4-(4-Methyl-2-pyridin-3-yl-thiazol-5-yl)-pyrimidin-2-ylamino]-benzyl}-acetamide] | – | 5010 | – | – | 2510 | – | 2510 | – | 199 to 201
CC(=O)N1CCN(c2ccc(Nc3nccc(-c4sc(-c5cccs5)nc4C)n3)cc2)CC1 [Compound 131, 1-(4-{4-[4-(4-Methyl-2-thiophen-2-yl-thiazol-5-yl)-pyrimidin-2-ylamino]-phenyl}-piperazin-1-yl)-ethanone] | – | 2510 | – | 251 | 2510 | – | 1580 | – | 134 to 136
COc1cc(Nc2nccc(-c3sc(N)nc3C)n2)cc(OC)c1 [Compound 161, [4-(2-Amino-4-methyl-thiazol-5-yl)-pyrimidin-2-yl]-(3,5-dimethoxy-phenyl)-amine] | – | – | 5.01 | 100 | 158 | – | – | – | 269 to 271
CC(=O)N1CCN(c2ccc(Nc3nccc(-c4sc(NCCc5ccccc5)nc4C)n3)cc2)CC1 [Compound 163, 1-(4-{4-[4-(4-Methyl-2-phenethylamino-thiazol-5-yl)-pyrimidin-2-ylamino]-phenyl}-piperazin-1-yl)-ethanone] | – | 631 | 126 | 63.1 | 1260 | – | 2510 | – | 212 to 213
CC(=O)N1CCN(c2ccc(Nc3nccc(-c4sc(N(C)c5cccnc5)nc4C)n3)cc2)CC1 [Compound 164, 1-[4-(4-{4-[4-Methyl-2-(methyl-pyridin-3-yl-amino)-thiazol-5-yl]pyrimidin-2-ylamino}-phenyl)-piperazin-1-yl]-ethanone] | – | 2000 | 25.1 | 31.6 | 398 | – | 3980 | – | 205 to 206
COc1cc(Nc2nccc(-c3sc(NCCc4ccccc4)nc3C)n2)cc(OC)c1OC [Compound 165, [4-(4-Methyl-2-phenethylamino-thiazol-5-yl)-pyrimidin-2-yl]-(3,4,5-trimethoxy-phenyl)-amine] | – | – | 20 | 63.1 | 2510 | – | – | – | 184 to 186
CCNc1nc(C)c(-c2ccnc(Nc3ccc(N4CCOCC4)c(C)c3)n2)s1 [Compound 219, [4-(2-Ethylamino-4-methyl-thiazol-5-yl)-pyrimidin-2-yl]-(3-methyl-4-morpholin-4-yl-phenyl)-amine] | – | 3160 | – | 63.1 | 1000 | – | – | – | 213 to 214
Cc1nc(C)c(-c2ccnc(Nc3ccc(N4CCOCC4)c(C)c3)n2)s1 [Compound 220, [4-(2,4-Dimethyl-thiazol-5-yl)-pyrimidin-2-yl]-(3-methyl-4-morpholin-4-yl-phenyl)-amine] | – | 6310 | – | 39.8 | 1260 | – | – | – | 164 to 166
